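Tested at 5 concentrations; 48 h exposure; 96-well plates; endpoints linearly interpolated, else capped at highest concentration. GI50 = concentration required for 50% inhibition of growth.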 The source made the active and inactive calls. No stated cut-off is given here; in the data, active = GI50 up to about 1.1 µM and inactive = higher.
Legend:
Assay in all cases: growth of human tumour cells (NCI), 48 h
HL-60 = tested on: HL-60
ACHN = tested on: ACHN
K562 = tested on: K562
CAKI-1 = tested on: CAKI-1
KM-20L2 = tested on: KM-20L2
SNB-75 = tested on: SNB-75
Malme-3M = tested on: Malme-3M
NCI-H226 = tested on: NCI-H226
NCI-H23 = tested on: NCI-H23
COLO 205 = tested on: COLO 205
SK-MEL-5 = tested on: SK-MEL-5
UACC-62 = tested on: UACC-62
EKVX = tested on: EKVX
UO-31 = tested on: UO-31
786-0 = tested on: 786-0
LXFL 529 = tested on: LXFL 529
DLD-1 = tested on: DLD-1
TK-10 = tested on: TK-10
NCI-H522 = tested on: NCI-H522
OVCAR-3 = tested on: OVCAR-3

SMILES | GI50 (HL-60) | GI50 (ACHN) | GI50 (K562) | GI50 (CAKI-1) | GI50 (KM-20L2) | GI50 (SNB-75) | GI50 (Malme-3M) | GI50 (NCI-H226) | GI50 (NCI-H23) | GI50 (COLO 205) | GI50 (SK-MEL-5) | GI50 (UACC-62) | GI50 (EKVX) | GI50 (UO-31) | GI50 (786-0) | GI50 (LXFL 529) | GI50 (DLD-1) | GI50 (TK-10) | GI50 (NCI-H522) | GI50 (OVCAR-3)
CC(=O)C1=C(O)C(N)C2Cc3c(c(O)c4c(O)c(C)ccc4c3C)C(=O)C2(O)C1=O (stereo unspecified) | 2.23 µM (inactive) | 1.35 µM (inactive) | 1.87 µM (inactive) | 1.52 µM (inactive) | 2.85 µM (inactive) | 3.11 µM (inactive) | 1.29 µM (inactive) | 1.56 µM (inactive) | 1.75 µM (inactive) | 1.64 µM (inactive) | 1.19 µM (inactive) | 1.25 µM (inactive) | 1.89 µM (inactive) | 3.18 µM (inactive) | 2.58 µM (inactive) | 2.66 µM (inactive) | 2 µM (inactive) | 1.93 µM (inactive) | 3.98 µM (inactive) | 1.3 µM (inactive)
O=S(=O)(O)c1ccc([Se][Se]c2ccc(S(=O)(=O)O)cc2)cc1 | > 100 µM (inactive) | > 100 µM (inactive) | > 100 µM (inactive) | > 100 µM (inactive) | > 100 µM (inactive) | > 100 µM (inactive) | > 100 µM (inactive) | > 100 µM (inactive) | > 100 µM (inactive) | > 100 µM (inactive) | > 100 µM (inactive) | > 100 µM (inactive) | > 100 µM (inactive) | > 100 µM (inactive) | > 100 µM (inactive) | 51.2 µM (inactive) | > 100 µM (inactive) | > 100 µM (inactive) | 60.5 µM (inactive) | > 100 µM (inactive)
c1ccc2c(c1)[nH]c1c2nc2ncccn21 | > 10 µM (inactive) | > 100 µM (inactive) | > 100 µM (inactive) | > 100 µM (inactive) | > 100 µM (inactive) | > 100 µM (inactive) | > 100 µM (inactive) | > 100 µM (inactive) | > 100 µM (inactive) |  | > 100 µM (inactive) | > 100 µM (inactive) | > 100 µM (inactive) | > 100 µM (inactive) | > 100 µM (inactive) | > 100 µM (inactive) | > 100 µM (inactive) | > 100 µM (inactive) | > 100 µM (inactive) | 
COC(=O)C1=CC(O)CCC1c1ccc(OC)cc1 (stereo unspecified) | > 100 µM (inactive) | > 100 µM (inactive) | > 100 µM (inactive) | > 100 µM (inactive) | > 100 µM (inactive) | > 100 µM (inactive) | > 100 µM (inactive) | > 100 µM (inactive) | > 100 µM (inactive) | > 100 µM (inactive) | > 100 µM (inactive) | > 100 µM (inactive) | > 100 µM (inactive) | > 100 µM (inactive) | > 100 µM (inactive) | > 100 µM (inactive) | > 100 µM (inactive) | > 100 µM (inactive) | > 100 µM (inactive) | > 100 µM (inactive)
Cc1cc(O)c(C=O)c(C)c1CCC1(C)C=Cc2cc(O)ccc2O1 (stereo unspecified) | 22.8 µM (inactive) | 15.7 µM (inactive) | 24.3 µM (inactive) | 19.2 µM (inactive) | 25.1 µM (inactive) | 22.6 µM (inactive) | 24.8 µM (inactive) | 26.5 µM (inactive) | 16.7 µM (inactive) | 15.6 µM (inactive) | 25.2 µM (inactive) | 16.7 µM (inactive) | 29.5 µM (inactive) |  | 29.3 µM (inactive) | 15.7 µM (inactive) | 19.6 µM (inactive) | 46.5 µM (inactive) | 14.8 µM (inactive) | 18.5 µM (inactive)
O=[N+]([O-])c1nccn1CC(O)CN1CC1 (stereo unspecified) | 24.8 µM (inactive) | 29.1 µM (inactive) | 46 µM (inactive) | 39 µM (inactive) | 61.2 µM (inactive) | 42.8 µM (inactive) | > 100 µM (inactive) | 94 µM (inactive) | 36.4 µM (inactive) | 44.6 µM (inactive) | 71.8 µM (inactive) | 44.8 µM (inactive) | > 100 µM (inactive) | 37.8 µM (inactive) | 65.6 µM (inactive) | 79.4 µM (inactive) | 69.3 µM (inactive) | > 100 µM (inactive) | 21.5 µM (inactive) | 25.5 µM (inactive)
C1=C(c2ccccc2)C(OC2Oc3ccccc3C=C2c2ccccc2)Oc2ccccc21 (stereo unspecified) | > 100 µM (inactive) | 26.1 µM (inactive) | > 100 µM (inactive) | > 100 µM (inactive) | > 100 µM (inactive) | 24.6 µM (inactive) | > 100 µM (inactive) | > 100 µM (inactive) | > 100 µM (inactive) | > 100 µM (inactive) | > 100 µM (inactive) | > 100 µM (inactive) | > 100 µM (inactive) | > 100 µM (inactive) | > 100 µM (inactive) | > 100 µM (inactive) | > 100 µM (inactive) | > 100 µM (inactive) | > 100 µM (inactive) | > 100 µM (inactive)
NNc1cnn(-c2ccccc2)c(=O)c1Cl | > 100 µM (inactive) | > 100 µM (inactive) | > 100 µM (inactive) | > 100 µM (inactive) | > 100 µM (inactive) | > 100 µM (inactive) | > 100 µM (inactive) | > 100 µM (inactive) | > 100 µM (inactive) | > 100 µM (inactive) | > 100 µM (inactive) | > 100 µM (inactive) |  | > 100 µM (inactive) | > 100 µM (inactive) | > 100 µM (inactive) | > 100 µM (inactive) | > 100 µM (inactive) | > 100 µM (inactive) | > 100 µM (inactive)
O=C(Nc1ccc(Cl)cc1Cl)C1C(=O)C(=O)N(c2ccc(Cl)cc2Cl)C1=O (stereo unspecified) | > 100 µM (inactive) | > 100 µM (inactive) |  | > 100 µM (inactive) | > 100 µM (inactive) | > 100 µM (inactive) | > 100 µM (inactive) | 34.1 µM (inactive) | > 100 µM (inactive) |  | > 100 µM (inactive) | > 100 µM (inactive) | > 100 µM (inactive) | > 100 µM (inactive) | > 100 µM (inactive) | > 100 µM (inactive) | > 100 µM (inactive) | > 100 µM (inactive) | > 100 µM (inactive) | 38.5 µM (inactive)
O=C(/C=N/O)Nc1ccc(Cl)c(I)c1 | 19.3 µM (inactive) | 16.7 µM (inactive) | 24 µM (inactive) | 14.3 µM (inactive) | 33 µM (inactive) |  | 25.5 µM (inactive) | 0.0445 µM (active) | 17.8 µM (inactive) | 13.6 µM (inactive) | 18.4 µM (inactive) | 10.2 µM (inactive) | 10.8 µM (inactive) | 12.1 µM (inactive) | 29.3 µM (inactive) | 12.9 µM (inactive) | 27.1 µM (inactive) | 33.6 µM (inactive) | 14.7 µM (inactive) | 13.6 µM (inactive)
COc1cc(OC)c2ssc3c(OC)cc(OC)c4ssc1c2-c43 |  | > 100 µM (inactive) | > 100 µM (inactive) | > 100 µM (inactive) | > 100 µM (inactive) | 31.3 µM (inactive) | > 100 µM (inactive) | > 100 µM (inactive) | > 100 µM (inactive) | > 100 µM (inactive) | > 100 µM (inactive) | > 100 µM (inactive) | > 100 µM (inactive) |  | > 100 µM (inactive) | > 100 µM (inactive) | > 100 µM (inactive) | > 100 µM (inactive) | > 100 µM (inactive) | > 100 µM (inactive)

— ChEMBL document CHEMBL1201862, “PubChem BioAssay data set” (2004)
